Test results from the supplement of paper PMC10307832.

How the values were obtained:
Assay in all cases: relative viability (nuclei count vs DMSO), 5 days (fraction); higher = more cells survive
Linifanib + Vorinostat = compound: Cc1ccc(F)c(NC(=O)Nc2ccc(-c3cccc4[nH]nc(N)c34)cc2)c1 [Linifanib] + O=C(CCCCCCC(=O)Nc1ccccc1)NO [Vorinostat] (partner 1 µM)
Summary of the method: (§1)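 Dosing by pin tool came one day after lung cancer cell lines were seeded in 1536-well plates, using either one drug or a fixed anchor-drug dose plus five library-drug doses (not always all listed) in √10 steps. After 5 days, nuclei were counted on 4× images. Relative viability is treated-well nuclei count divided by vehicle-well nuclei count, and values are medians of duplicate plates.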

Linifanib + Dasatinib = compound: Cc1ccc(F)c(NC(=O)Nc2ccc(-c3cccc4[nH]nc(N)c34)cc2)c1 [Linifanib] + Cc1nc(Nc2ncc(C(=O)Nc3c(C)cccc3Cl)s2)cc(N2CCN(CCO)CC2)n1 [Dasatinib] (partner 0.075 µM)
Summary of the method: as §1

Linifanib + Trametinib = compound: Cc1ccc(F)c(NC(=O)Nc2ccc(-c3cccc4[nH]nc(N)c34)cc2)c1 [Linifanib] + CC(=O)Nc1cccc(-n2c(=O)n(C3CC3)c(=O)c3c(Nc4ccc(I)cc4F)n(C)c(=O)c(C)c32)c1 [Trametinib] (partner 0.02 µM)
Summary of the method: as §1

Linifanib + Decitabine = compound: Cc1ccc(F)c(NC(=O)Nc2ccc(-c3cccc4[nH]nc(N)c34)cc2)c1 [Linifanib] + Nc1ncn([C@H]2C[C@H](O)[C@@H](CO)O2)c(=O)n1 [Decitabine] (partner 2 µM)
Summary of the method: as §1

Linifanib + Lapatinib = compound: Cc1ccc(F)c(NC(=O)Nc2ccc(-c3cccc4[nH]nc(N)c34)cc2)c1 [Linifanib] + CS(=O)(=O)CCNCc1ccc(-c2ccc3ncnc(Nc4ccc(OCc5cccc(F)c5)c(Cl)c4)c3c2)o1 [Lapatinib] (partner 2 µM)
Summary of the method: as §1

Linifanib + OSI-027 = compound: Cc1ccc(F)c(NC(=O)Nc2ccc(-c3cccc4[nH]nc(N)c34)cc2)c1 [Linifanib] + COc1cccc2cc(-c3nc([C@H]4CC[C@H](C(=O)O)CC4)n4ncnc(N)c34)[nH]c12 [OSI-027] (partner 0.5 µM)
Summary of the method: as §1

Cell Line | relative viability (Linifanib + Vorinostat; first compound 0.03162 µM) | relative viability (Linifanib + Vorinostat; first compound 0.1 µM) | relative viability (Linifanib + Vorinostat; first compound 0.3162 µM) | relative viability (Linifanib + Dasatinib; first compound 0.03162 µM) | relative viability (Linifanib + Dasatinib; first compound 0.1 µM) | relative viability (Linifanib + Dasatinib; first compound 0.3162 µM) | relative viability (Linifanib + Trametinib; first compound 0.03162 µM) | relative viability (Linifanib + Trametinib; first compound 0.1 µM) | relative viability (Linifanib + Trametinib; first compound 0.3162 µM) | relative viability (Linifanib + Decitabine; first compound 0.03162 µM) | relative viability (Linifanib + Decitabine; first compound 0.1 µM) | relative viability (Linifanib + Decitabine; first compound 0.3162 µM) | relative viability (Linifanib + Lapatinib; first compound 0.03162 µM) | relative viability (Linifanib + Lapatinib; first compound 0.1 µM) | relative viability (Linifanib + Lapatinib; first compound 0.3162 µM) | relative viability (Linifanib + OSI-027; first compound 0.03162 µM) | relative viability (Linifanib + OSI-027; first compound 0.1 µM) | relative viability (Linifanib + OSI-027; first compound 0.3162 µM)
NCI-H1437 | 0.851 | 0.918 | 0.819 | 0.375 | 0.407 | 0.378 | 0.559 | 0.618 | 0.45 | 0.62 | 0.573 | 0.571 | 0.957 | 0.801 | 0.77 | 0.881 | 0.895 | 0.908
NCI-H1650 | 0.528 | 0.602 | 0.655 | 0.327 | 0.348 | 0.252 | 0.563 | 0.673 | 0.541 | 0.482 | 0.407 | 0.37 | 0.797 | 0.9 | 0.721 | 0.752 | 0.78 | 0.585
NCI-H1651 | 0.688 | 0.561 | 0.573 | 0.499 | 0.393 | 0.398 | 0.896 | 0.787 | 0.787 | 0.616 | 0.592 | 0.517 | 0.981 | 0.88 | 0.817 | 0.624 | 0.8 | 0.829
NCI-H1666 | 0.996 | 1.01 | 0.97 | 0.856 | 0.833 | 0.779 | 0.851 | 0.878 | 0.842 | 0.856 | 0.691 | 0.698 | 0.792 | 0.649 | 0.705 | 0.882 | 0.903 | 0.784
NCI-H1734 | 0.815 | 0.849 | 0.83 | 0.529 | 0.53 | 0.428 | 0.618 | 0.693 | 0.648 | 0.493 | 0.514 | 0.508 | 1.04 | 1.19 | 1.01 | 0.597 | 0.618 | 0.53
NCI-H1755 | 0.761 | 0.765 | 0.892 | 0.458 | 0.406 | 0.388 | 0.781 | 0.801 | 0.831 | 0.696 | 0.731 | 0.698 | 1.1 | 1.09 | 1.01 | 0.753 | 0.827 | 0.669
NCI-H1793 | 0.777 | 0.796 | 0.745 | 0.394 | 0.439 | 0.406 | 0.372 | 0.56 | 0.434 | 0.486 | 0.412 | 0.586 | 0.7 | 0.765 | 0.765 | 0.254 | 0.296 | 0.267
NCI-H1915 | 0.549 | 0.482 | 0.504 | 0.301 | 0.359 | 0.36 | 0.279 | 0.339 | 0.297 | 0.286 | 0.247 | 0.257 | 1.08 | 0.925 | 0.89 | 0.668 | 0.688 | 0.616
NCI-H1944 | 0.73 | 0.599 | 0.657 | 0.204 | 0.215 | 0.216 | 0.427 | 0.416 | 0.381 | 0.425 | 0.449 | 0.415 | 0.943 | 0.881 | 0.645 | 0.405 | 0.462 | 0.409
